# Data reported in patent US10087156B2, “Methods and compositions related to retinoid receptor-selective pathway” (Sanford Burnham Prebys Medical Discovery Institute, priority 2010, dated 2018).
# “Also recorded” adds a separate entry of the source.
# How the values were obtained:
# COX-2 = target: T1, COX-2 (Homo sapiens, UniProt P35354); assay: COX activity assay; type: biochemical
# T1 construct: purchased Cayman Chemical 700100
# Protocol: (§1) COX Fluorescent Activity Assay Kit (700200), COX Fluorescent Inhibitor Screening Assay Kit (700100) and Prostaglandin E2 Enzyme Immunoassay (EIA) Kit (514010) were obtained from Cayman Chemical (Ann Arbor, Mich.). COX-1 and COX-2 activity assay were performed according to the manufacturer's protocol.
# COX-1 = target: T2, COX-1 (Ovis aries, UniProt P05979); assay: COX activity assay; type: biochemical
# T2 construct: purchased Cayman Chemical 700100
# Protocol: as §1
# [1] = target: T3, interaction of p85α with RXRα/Δ80 (Homo sapiens, UniProt P19793); assay: Co-immunoprecipitation of Flag-p85α and Myc-RXRα/Δ80 in A549 cells; type: cell-based; conditions: 50 μM, with or without TNFα
# T3 construct: expressed in transfected cells; host or cells: A549 human lung cancer cells
# Protocol: Caco-2 and MEF cells were treated with the indicated concentration of Sulindac or K-80003 for 30 min, then stimulated with all-trans-RA (10^-7 M) for 15 min. AKT activation was analyzed by immunoblotting. PC3 cells transfected with RXRα or RARγ siRNA were pre-treated with K-80003 (50 μM) for 1 hr before exposed to TNFα (10 ng/ml) for 30 min (pRXRα: phosphorylated RXRα). A549 cells were transfected with Flag-p85α and Myc-RXRα/[…], treated with Sulindac (50 μM) or K-80003 (50 μM) for 1 hr, exposed to TNFα for 30 min, and analyzed by coimmunoprecipitation using an anti-Flag antibody. […] (FIG. 8C). Reducing RXRα expression by siRNA largely impaired the inhibitory effect of K-80003 on AKT activation in PC3 cells. […] Thus, inhibition of AKT activation by K-80003 was also dependent on RXRα expression (FIG. 8B). For the CoIP assay, cells or cells transfected with indicated expression vectors were suspended in lysis buffer (50 mM Tris-HCl, pH 7.4; 150 mM NaCl; 20 mM EDTA; 1% NP-40; 1 mM PMSF; […] Leupeptin; […] Aprotinin; 0.1 mM Na3VO4; and 1 mM DTT). […] Immunoreactive products were detected by chemiluminescence with an enhanced chemiluminescence system (ECLTM) (Amersham Biosciences, Amersham, UK).
# AKT [2] = assay: Retinoic acid-induced AKT activation by immunoblotting; type: cell-based; conditions: 50 μM each, Caco-2 and MEF cells
# Protocol: MEF and Caco-2 cells were starved overnight and pretreated with Sulindac for 30 min before exposure to all-trans-retinoic acid (ATRA) (10^−7 M) for 30 min and analyzed for AKT activation (FIG. 12B).
# Caco-2 and MEF cells were treated with the indicated concentration of Sulindac or K-80003 for 30 min, then stimulated with all-trans-RA (10^−7 M) for 15 min. AKT activation was analyzed by immunoblotting.
# c-FLIP = c-FLIP expression by immunoblotting; type: cell-based; conditions: HepG2, A549 and SW480 cells, 6 hr
# Protocol: Cells treated with TNFα and/or Sulindac for 6 hr were analyzed by immunoblotting (FIG. 6I). The expression of c-FLIP, a downstream target gene of AKT signaling, which acts as a potent inhibitor of the extrinsic apoptotic pathway by inhibiting caspase-8 activation, was examined. […] Thus, Sulindac may induce apoptosis by suppressing the inducing effect of TNFα on c-FLIP expression.
# AKT [3] = assay: Basal AKT activation by immunoblotting; type: cell-based; conditions: various cancer cell lines incl. SW480 and HCT116, 100 μM, 1 hr
# Protocol: HepG2, SW480, RAW264.7, HCT116, LNCaP, PC3, ZR-75-1, and HaCat cells were starved overnight and treated with Sulindac (100 μM) for 1 hr and analyzed for AKT activation by immunoblotting (FIG. 3A). HepG2 cells were also transfected with RXRα siRNA for 48 hours, treated with Sulindac (100 μM) for 1 hour, and analyzed for AKT activation and RXRα expression by immunoblotting (FIG. 3B).
# For immunoblotting, cell lysates were boiled in SDS sample buffer, resolved by SDS-polyacrylamide gel electrophoresis, and transferred to nitrocellulose. After transfer, the membranes were blocked in 5% milk in TBST (10 mM Tris-HCl, pH. 8.0, 150 mM NaCl, 0.05% Tween 20) containing antibody. The membranes were then washed three times with TBST, then incubated for 1 hr at room temperature in 5% milk in TBST containing horseradish peroxide-linked anti-immunoglobulin.
# HepG2 cells [4] = assay: Caspase-8 activation by anti-cleaved caspase-8 immunostaining; type: cell-based; conditions: TNFα and Sulindac
# Protocol: (§2) PC3 cells transfected with CA-AKT or DN-AKT were treated with TNFα and/or Sulindac, and analyzed by immunoblotting (FIG. 6F). Activation of caspase-8 (FIG. 6G) and Bax (FIG. 6H) by Sulindac and TNFα. HepG2 cells transfected with CA-AKT were treated with TNFα and Sulindac, and immunostained with anti-cleaved caspase-8 or Bax/6A7 antibody. […] Sulindac/TNFα-induced PARP cleavage was inhibited by transfection of constitutive-active AKT (CA-AKT) but enhanced by transfection of dominant-negative AKT (DN-AKT) (FIG. 6F). Consistently, induction of apoptosis (FIG. 17B) and activation of caspase-8 (FIG. 6G) and Bax (FIG. 6H) by Sulindac/TNFα combination was inhibited by CA-AKT.
# HepG2 cells [5] = assay: Bax activation by Bax/6A7 immunostaining; type: cell-based
# Protocol: as §2, with “Activation of Bax by Sulindac and TNFα. HepG2 cells treated with TNFα and/or Sulindac were immunostained with Bax/6A7 antibody. […] HepG2 cells treated with TNFα or Sulindac alone or together were examined for Bax activation by immunostaining using conformation-sensitive Bax/6A7 antibody. Significant Bax staining was observed only when cells were treated with both TNFα and Sulindac (FIG. 6E). Cross-talk between extrinsic and intrinsic apoptotic pathways can be linked through Bid cleavage and activation (Li et al., Cell 94 (4), 491-501 (1998)). […] PC3” for “PC3”
# T3 sequence (P19793 81-462 limits assumed, stated change not applied): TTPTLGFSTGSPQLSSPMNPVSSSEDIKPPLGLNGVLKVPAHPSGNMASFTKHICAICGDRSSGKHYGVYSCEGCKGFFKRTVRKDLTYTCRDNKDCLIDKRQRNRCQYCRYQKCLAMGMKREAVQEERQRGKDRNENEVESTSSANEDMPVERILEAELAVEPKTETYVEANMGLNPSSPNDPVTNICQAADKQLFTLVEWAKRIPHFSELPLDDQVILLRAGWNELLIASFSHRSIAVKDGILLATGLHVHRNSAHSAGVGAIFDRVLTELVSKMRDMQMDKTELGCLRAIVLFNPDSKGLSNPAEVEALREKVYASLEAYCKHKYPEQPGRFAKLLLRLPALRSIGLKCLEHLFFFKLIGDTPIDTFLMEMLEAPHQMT
# T1 sequence (P35354 18-604): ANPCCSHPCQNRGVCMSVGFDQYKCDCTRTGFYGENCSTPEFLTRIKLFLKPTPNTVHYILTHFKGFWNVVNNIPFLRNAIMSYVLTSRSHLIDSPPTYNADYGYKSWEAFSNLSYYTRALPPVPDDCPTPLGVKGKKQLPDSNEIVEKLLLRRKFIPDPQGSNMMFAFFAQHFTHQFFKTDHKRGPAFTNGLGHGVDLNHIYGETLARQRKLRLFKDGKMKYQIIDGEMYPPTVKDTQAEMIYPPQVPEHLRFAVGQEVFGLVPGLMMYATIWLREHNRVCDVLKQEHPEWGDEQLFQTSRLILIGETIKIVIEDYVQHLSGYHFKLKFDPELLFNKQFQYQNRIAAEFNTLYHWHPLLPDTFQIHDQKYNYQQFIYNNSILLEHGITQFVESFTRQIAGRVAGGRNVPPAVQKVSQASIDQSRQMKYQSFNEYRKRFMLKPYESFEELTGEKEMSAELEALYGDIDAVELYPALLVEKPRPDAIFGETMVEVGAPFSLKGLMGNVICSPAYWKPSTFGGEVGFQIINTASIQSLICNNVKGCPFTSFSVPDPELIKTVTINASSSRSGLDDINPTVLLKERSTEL
# T2 sequence (P05979 25-600): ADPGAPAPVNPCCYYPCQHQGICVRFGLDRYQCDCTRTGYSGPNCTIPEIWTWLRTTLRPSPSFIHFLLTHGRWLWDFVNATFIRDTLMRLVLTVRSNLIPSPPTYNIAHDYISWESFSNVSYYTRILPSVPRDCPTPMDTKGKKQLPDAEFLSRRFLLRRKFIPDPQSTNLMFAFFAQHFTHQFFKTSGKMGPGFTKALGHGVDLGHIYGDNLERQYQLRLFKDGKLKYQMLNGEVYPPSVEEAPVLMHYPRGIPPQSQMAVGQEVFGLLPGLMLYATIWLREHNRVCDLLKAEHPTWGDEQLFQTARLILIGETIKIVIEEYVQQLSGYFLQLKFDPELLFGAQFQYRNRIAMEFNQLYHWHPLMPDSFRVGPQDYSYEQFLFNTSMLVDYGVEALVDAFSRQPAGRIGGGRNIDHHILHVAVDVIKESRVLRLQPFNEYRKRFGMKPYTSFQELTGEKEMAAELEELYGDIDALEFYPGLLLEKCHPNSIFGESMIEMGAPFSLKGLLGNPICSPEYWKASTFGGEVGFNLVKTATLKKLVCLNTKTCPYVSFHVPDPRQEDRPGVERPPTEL
Compound,inhibition of COX-2 activity (COX-2),inhibition of COX-1 activity (COX-1),inhibition of interaction of p85α with RXRα/Δ80 [1],"inhibition of ATRA-induced AKT activation, compared with Sulindac (AKT [2])",TNFα induction of c-FLIP (c-FLIPS and c-FLIPL) (c-FLIP),inhibition of basal AKT activation (AKT [3]),"cells showing caspase-8 staining, CA-AKT-transfected (HepG2 cells [4]) [%]","cells showing caspase-8 staining, nontransfected (HepG2 cells [4])","cells showing Bax staining, Sulindac/TNFα (HepG2 cells [5]; Bax/6A7 antibody)","cells exhibiting Bax staining, CA-AKT-transfected (HepG2 cells [5]; TNFα and Sulindac)","cells exhibiting Bax staining, nontransfected (HepG2 cells [5]; TNFα and Sulindac)"
"CC1=C(CC(=O)O)c2cc(F)ccc2/C1=C\c1ccc(C(C)C)cc1 [K-80003, (Z)-2-(3-(4-Iso-propylbenzylidene)-6-fluoro-2-methyl-3H-inden-1-yl)acetic acid]",no detectable inhibition,no detectable inhibition,much more effective than Sulindac; also recorded: potently inhibited,much more effective than Sulindac,,,,,,,
"CSc1ccc(/C=C2/C(C)=C(CC(=O)O)c3cc(F)ccc32)cc1 [Sulindac, (Z)-2-(3-(4-(Methylthio)benzylidene)-6-fluoro-2-methyl-3H-inden-1-yl)acetic acid]",,,,,inhibited,Significant inhibition,15,About 80%,about 60%,about 13%,About 60%
